This passage reports IC50 and Ki results from BindingDB's records for doi:10.1021/jm0309194 (University of Innsbruck, 2003).

A short description of experiment [1]: In vitro anticholinesterase activity against butyrylcholinesterase from torpedo californica.
A short description of experiment [2]: In vitro binding affinity was determined against butyrylcholinesterase from torpedo californica.

For `C/C(=C\C(=O)N(C)[C@H]1CC[C@@]2(C)[C@@H](CC[C@@H]3[C@@H]2CC[C@]2(C)C([C@H](C)N(C)C)=CC[C@@H]32)C1)C(C)C` [1N-[14-(1-dimethylaminoethyl)-2,15-dimethyl-(1S,7S,10R,11S)-tetracyclo[8.7.0.02,7.011,15]heptadec-13-en-5-yl]-1N,3,4-trimethyl-(E)-2-pentenamide], the IC50 – broadly, the concentration that gives 50% inhibition – in experiment [1] stood at 3.65 µM. In experiment [2], the affinity, expressed as Ki, was 9.1 µM.

As to `C/C=C(\C)C(=O)NC1C=C2CC[C@@H]3[C@H](CC[C@]4(C)C([C@H](C)N(C)C)=CC[C@@H]34)[C@@]2(C)C[C@H]1O` (stereo partly drawn) [1N-[14-[1-dimethylamino-(1S)-ethyl]-4-hydroxy-2,15-dimethyl-(1S,2R,4R,5R,10S,11S,15S)-tetracyclo[8.7.0.02,7.011,15]heptadeca-6,13-dien-5-yl]-2-methyl-(E)-2-butenamide], the IC50 in experiment [1] came to 23.8 µM. Compound `C/C(=C\C(=O)N[C@H]1CC[C@@]2(C)[C@@H](CC[C@@H]3[C@@H]2CC[C@]2(C)[C@@H]([C@H](C)N(C)C)CC[C@@H]32)C1)C(C)C` [3,4-Dimethyl-pent-2-enoic acid [(3S,5S,8R,9S,10S,13S,14S,17S)-17-(1-dimethylamino-ethyl)-10-methyl-13-(S)-methyl-hexadecahydro-cyclopenta[a]phenanthren-3-yl]-amide] registered a 50% inhibitory concentration (IC50) in experiment [1] of 4.63 µM. Besides, in experiment [2], the Ki – broadly, a measure of affinity in units of concentration, obtained from inhibition or displacement – came out at 3.25 µM. The compound `C/C=C(\C)C(=O)N[C@H]1CC[C@@]2(C)C(=CC[C@H]3C4=CC[C@H]([C@H](C)N(C)C)[C@@]4(C)CC[C@@H]32)C1=O` [(E)-2-Methyl-but-2-enoic acid [(3S,8R,9S,10R,13R,17S)-17-((S)-1-dimethylamino-ethyl)-10,13-dimethyl-4-oxo-2,3,4,7,8,9,10,11,12,13,16,17-dodecahydro-1H-cyclopenta[a]phenanthren-3-yl]-amide] had a half-inhibitory concentration (IC50) in experiment [1] of 4.29 µM. The Ki in experiment [2] was 1.6 µM.

Turning to `C/C=C(\C)C(=O)N[C@H]1CC[C@@]2(C)C(=CC[C@H]3[C@@H]4CC[C@H]([C@H](C)N(C)C)[C@@]4(C)CC[C@@H]32)C1=O` [(E)-2-Methyl-but-2-enoic acid [(3S,8S,9S,10R,13S,14S,17S)-17-((S)-1-dimethylamino-ethyl)-10,13-dimethyl-4-oxo-2,3,4,7,8,9,10,11,12,13,14,15,16,17-tetradecahydro-1H-cyclopenta[a]phenanthren-3-yl]-amide], the half-inhibitory concentration (IC50) in experiment [1] was found to be 2.1 µM. For the same compound, affinity in experiment [2] was put at a Ki of 3.08 µM. In experiment [1], `C/C(=C\C(=O)N(C)[C@H]1CC[C@@]2(C)[C@@H](CC[C@@H]3[C@@H]2CC[C@]2(C)[C@@H]([C@H](C)N(C)C)CC[C@@H]32)C1)C(C)C` [(E)-3,4-Dimethyl-pent-2-enoic acid [(3S,5S,8R,9S,10S,13S,14S,17S)-17-((S)-1-dimethylamino-ethyl)-10,13-dimethyl-hexadecahydro-cyclopenta[a]phenanthren-3-yl]-methyl-amide] yielded a concentration for half-maximal inhibition (IC50) of 4.07 µM. Also, the Ki in experiment [2] turned out to be 3.4 µM. `C[C@@H]([C@H]1CC[C@H]2[C@@H]3CC[C@H]4C[C@@H](N(C)C(=O)/C=C/c5ccccc5)CC[C@]4(C)[C@H]3CC[C@]12C)N(C)C` [(E)-N-[(3S,5S,8R,9S,10S,13S,14S,17S)-17-((S)-1-Dimethylamino-ethyl)-10,13-dimethyl-hexadecahydro-cyclopenta[a]phenanthren-3-yl]-N-methyl-3-phenyl-acrylamide] returned an IC50 in experiment [1] of 4.84 µM. In experiment [2], this compound returned a Ki of 6.6 µM. For `C/C=C(\C)C(=O)N[C@@H]1[C@H](OC(C)=O)[C@@H]2CC[C@@H]3[C@H](CC[C@]4(C)[C@@H]([C@H](C)N(C)C)CC[C@@H]34)[C@@]2(C)C[C@@H]1O` [Acetic acid (1S,4S,6R,7R,10R,11S,12S,15S,16S)-17-((S)-1-dimethylamino-ethyl)-2-(S)-hydroxy-10,13-dimethyl-3-((E)-2-methyl-but-2-enoylamino)-hexadecahydro-cyclopenta[a]phenanthren-4-yl ester], the IC50 in experiment [1] was determined as 18.2 µM. In turn, `CC(=O)O[C@H]1[C@@H](NC(=O)C=C(C)C)CC[C@]2(C)[C@H]3CC[C@]4(C)[C@@H]([C@H](C)N(C)C)CC[C@H]4[C@@H]3CC[C@@H]12` [Acetic acid (1S,6R,7R,10R,11S,12S,15S,16S)-17-((S)-1-dimethylamino-ethyl)-10,13-dimethyl-3-(3-methyl-but-2-enoylamino)-hexadecahydro-cyclopenta[a]phenanthren-4-yl ester] yielded an IC50 in experiment [1] of 2.3 µM. The compound also gave a Ki in experiment [2] of 2.58 µM. In the case of `C/C=C(\C)C(=O)N[C@@H]1[C@H](OC(C)=O)[C@@H]2CC[C@H]3C4=CC[C@H]([C@H](C)N(C)C)[C@@]4(C)CC[C@@H]3[C@@]2(C)C[C@@H]1O` [Acetic acid (2S,3S,4R,5R,8R,9S,10R,13R,17S)-17-((S)-1-dimethylamino-ethyl)-2-hydroxy-10,13-dimethyl-3-((E)-2-methyl-but-2-enoylamino)-2,3,4,5,6,7,8,9,10,11,12,13,16,17-tetradecahydro-1H-cyclopenta[a]phenanthren-4-yl ester], in experiment [1], the 50% inhibitory concentration (IC50) was determined as 38.4 µM. In experiment [2], this compound gave an inhibition constant Ki of 26.3 µM. Turning to `CC(=O)O[C@H]1[C@@H](NC(=O)c2ccccc2)[C@@H](O)C[C@]2(C)[C@H]3CC[C@]4(C)[C@@H]([C@H](C)N(C)C)CC[C@H]4[C@@H]3CC[C@@H]12` [Acetic acid (2S,3S,4R,5R,8S,9S,10R,13S,14S,17S)-3-benzoylamino-17-(1-dimethylamino-ethyl)-2-hydroxy-10-methyl-13-(S)-methyl-hexadecahydro-cyclopenta[a]phenanthren-4-yl ester], in experiment [1], the IC50 was determined as 18 µM. Moreover, in experiment [2], the Ki was found to be 20.3 µM.

In experiment [1], `CN[C@H]1CC[C@@]2(C)[C@@H](CC[C@@H]3[C@@H]2CC[C@]2(C)[C@@H]([C@H](C)N(C)C(C)=O)CC[C@@H]32)C1` [N-Methyl-N-[1-((3S,5S,8R,9S,10S,13S,14S,17S)-10-methyl-13-(S)-methyl-3-methylamino-hexadecahydro-cyclopenta[a]phenanthren-17-yl)-ethyl]-acetamide] showed an IC50 of 16.5 µM. In experiment [2], this compound yielded a Ki of 8.6 µM. The matching figures for `C[C@@H]([C@H]1CC[C@H]2[C@@H]3CC[C@H]4C[C@@H](NC(=O)c5ccccc5)[C@@H](O)C[C@]4(C)[C@H]3CC[C@]12C)N(C)C` [N-[(2S,3R,5S,8R,9S,10S,13S,14S,17S)-17-(1-Dimethylamino-ethyl)-2-hydroxy-10-methyl-13-(S)-methyl-hexadecahydro-cyclopenta[a]phenanthren-3-yl]-benzamide]: 28.9 µM and 16.2 µM. On to `CC(=O)N[C@H]1CC[C@@]2(C)[C@@H](CC[C@@H]3[C@@H]2CC[C@]2(C)[C@@H]([C@H](C)N(C)C)CC[C@@H]32)C1` [N-[(3S,5S,8R,9S,10S,13S,14S,17S)-17-((S)-1-Dimethylamino-ethyl)-10,13-dimethyl-hexadecahydro-cyclopenta[a]phenanthren-3-yl]-acetamide], for which 10.3 µM corresponded to half-maximal inhibition in experiment [1] (IC50). The compound also returned a Ki in experiment [2] of 7.5 µM. Consider `C[C@@H]([C@H]1CC[C@H]2[C@@H]3CC[C@H]4C(=O)C(NC(=O)c5ccccc5)=CC[C@]4(C)[C@H]3CC[C@]12C)N(C)C` [N-[(5R,8S,9S,10R,13S,14S,17S)-17-((S)-1-Dimethylamino-ethyl)-10,13-dimethyl-4-oxo-4,5,6,7,8,9,10,11,12,13,14,15,16,17-tetradecahydro-1H-cyclopenta[a]phenanthren-3-yl]-benzamide], for which, in experiment [1], the IC50 stood at 2.49 µM. In addition, the inhibitory constant (Ki) in experiment [2] is 2.15 µM.
